These results are taken from article PMC8469457, “Proline-Specific Fungal Peptidases: Genomic Analysis and Identification of Secreted DPP4 in Alkaliphilic and Alkalitolerant Fungi” (Journal of Fungi, 2021).

The test concerns the target T1, DPP4 of S. alkalinus F11 (secreted DPP4, culture filtrate) (Sodiomyces alkalinus, UniProt A0A3N2PX53).
T1 construct: gene SODALDRAFT_276413; native secreted enzyme, unpurified 14-day culture filtrate; link of ROT38925.1 to the assayed activity is inferred
T1 sequence (A0A3N2PX53 27-782): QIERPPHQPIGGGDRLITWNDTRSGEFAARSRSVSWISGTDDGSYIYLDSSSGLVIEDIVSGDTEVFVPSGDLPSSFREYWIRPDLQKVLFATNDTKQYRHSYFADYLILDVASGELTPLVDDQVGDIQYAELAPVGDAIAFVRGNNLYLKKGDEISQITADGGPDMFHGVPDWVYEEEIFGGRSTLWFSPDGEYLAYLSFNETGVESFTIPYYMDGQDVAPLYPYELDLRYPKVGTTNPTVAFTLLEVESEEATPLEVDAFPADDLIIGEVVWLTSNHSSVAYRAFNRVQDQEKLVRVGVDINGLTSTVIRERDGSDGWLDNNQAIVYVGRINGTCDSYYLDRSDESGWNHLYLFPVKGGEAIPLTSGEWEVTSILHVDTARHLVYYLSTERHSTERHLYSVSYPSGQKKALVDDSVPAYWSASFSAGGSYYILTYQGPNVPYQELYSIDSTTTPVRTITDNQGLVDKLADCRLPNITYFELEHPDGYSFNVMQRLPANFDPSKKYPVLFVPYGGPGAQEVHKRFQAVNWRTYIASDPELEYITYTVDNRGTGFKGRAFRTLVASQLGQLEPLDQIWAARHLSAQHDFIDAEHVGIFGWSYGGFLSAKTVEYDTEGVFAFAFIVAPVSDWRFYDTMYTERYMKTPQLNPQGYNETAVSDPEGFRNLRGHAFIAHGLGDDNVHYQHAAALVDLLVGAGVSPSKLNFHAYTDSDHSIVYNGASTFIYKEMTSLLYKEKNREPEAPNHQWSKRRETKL
Put plainly: residual hydrolysis of Ala-Pro-pNa, absorbance at […] nm, culture filtrate. The conditions noted are these: read-out: % residual activity at 0.25 mM. The class given is biochemical.

`CC[C@H](C)[C@H](N)C(=O)N1CCC[C@H]1C(=O)N[C@H](C(=O)O)[C@@H](C)CC` [diprotin A]: the remaining activity at 250 µM worked out at 3.2%.
